This is an account of results in ChEMBL document CHEMBL1123035, “Synthesis and LSD-like discriminative stimulus properties in a series of N(6)-alkyl norlysergic acid N,N-diethylamide derivatives” (J Med Chem, 1985).

By ED50 is commonly meant the dose at which the effect has come halfway, by size or by number of responders.

Series [1] has as its system Rattus norvegicus. As to the kind of experiment: Number of rats scored LSD correct/number tested was reported at a dose of 3.710 uM/kg using 2-lever drug discrimination assay; complete generalisation did not occur at the highest dose used. To be noted: in vivo. The format is ADME, organism-based.
For series [2], the species on record is Rattus norvegicus. As to the kind of experiment: Effective dose at which 50% of the rats tested selected the LSD-appropriate lever was reported; 0.052-0.186. The format is functional.
Series [3] concerns Rattus norvegicus. As to the kind of experiment: Number of rats scored LSD correct/number tested was reported at a dose of 185.5 nM/Kg using 2-lever drug discrimination assay; 5/8. The format is functional.
Series [4] has as its system Rattus norvegicus. Nature of the series: Number of rats scored LSD correct/number tested was reported at a dose of 93 nM/kg using 2-lever drug discrimination assay; 3/8. The format is functional.
Series [5] deals with Rattus norvegicus. As to the kind of experiment: Number of rats scored LSD correct/number tested was reported at a dose of 371 nM/kg using 2-lever drug discrimination assay; 8/8. The format is functional.
For series [6], the species on record is Rattus norvegicus. As to the kind of experiment: Potency ratio was obtained using a 3 point x 3 point parallel-line bioassay for quantal data and reflects the potency relative to LSD; 0.66-0.25. The format is functional.
For series [7], the system named is Rattus norvegicus. Nature of the series: Number of rats scored LSD correct/number tested was reported at a dose of 23 nM/Kg using 2-lever drug discrimination assay; 1/8. The format is functional.
In series [8] the test system is Rattus norvegicus. Nature of the series: Number of rats scored LSD correct/number tested was reported at a dose of 46.5 nM/Kg using 2-lever drug discrimination assay; 2/8. The format is functional.
The subject of series [9] is Rattus norvegicus. As to the kind of experiment: Number of rats scored LSD correct/number tested was reported at a dose of 11.5 nM/kg using 2-lever drug discrimination assay; 4/8. The format is functional.
In series [10] the test system is Rattus norvegicus. Nature of the series: Number of rats scored LSD correct/number tested was reported at a dose of 23 nM/kg using 2-lever drug discrimination assay; 4/8. It is filed as functional.
The species entered for series [11] is Rattus norvegicus. Nature of the series: Potency ratio was obtained using a 3 point x 3 point parallel-line bioassay for quantal data and reflects the potency relative to LSD; 3.27-1.24. It is filed as functional.
For series [12], the species on record is Rattus norvegicus. Nature of the series: Effective dose at which 50% of the rats tested selected the LSD-appropriate lever was reported; 0.006-0.027. The format is functional.
The subject of series [13] is Rattus norvegicus. Nature of the series: Number of rats scored LSD correct/number tested was reported at a dose of 5.75 nM/kg using 2-lever drug discrimination assay; 3/8. It is filed as functional.
The test system of series [14] is Rattus norvegicus. As to the kind of experiment: Number of rats scored LSD correct/number tested was reported at a dose of 93 nM/kg using 2-lever drug discrimination assay; 8/8. It is filed as functional.
Series [15] concerns Rattus norvegicus. Nature of the series: Number of rats scored LSD correct/number tested was reported at a dose of 46.5 nM/kg using 2-lever drug discrimination assay; 6/8. The format is functional.
Series [16] has as its system Rattus norvegicus. Nature of the series: Number of rats scored LSD correct/number tested was reported at a dose of 0.742 uM/kg using 2-lever drug discrimination assay; complete generalisation did not occur at the highest dose used. To be noted: in vivo. The format is ADME, organism-based.
The test system of series [17] is Rattus norvegicus. As to the kind of experiment: Number of rats scored LSD correct/number tested was reported at a dose of 46.5 nM/kg using 2-lever drug discrimination assay; 0/8. The format is functional.
In series [18] the test system is Rattus norvegicus. As to the kind of experiment: Number of rats scored LSD correct/number tested was reported at a dose of 185.5 nM/kg using 2-lever drug discrimination assay; 1/8. The format is functional.
Series [19] concerns Rattus norvegicus. As to the kind of experiment: Number of rats scored LSD correct/number tested was reported at a dose of 371 nM/kg using 2-lever drug discrimination assay; 3/8. It is filed as functional.
Series [20] deals with Rattus norvegicus. As to the kind of experiment: Number of rats scored LSD correct/number tested was reported at a dose of 742 nM/kg using 2-lever drug discrimination assay; 7/8. The format is functional.
The species named for series [21] is Rattus norvegicus. Nature of the series: Effective dose at which 50% of the rats tested selected the LSD-appropriate lever was reported; 0.209-0.610. It is filed as functional.
The subject of series [22] is Rattus norvegicus. As to the kind of experiment: Number of rats scored LSD correct/number tested was reported at a dose of 93 nM/kg using 2-lever drug discrimination assay; 1/8. It is filed as functional.
For series [23], the species on record is Rattus norvegicus. As to the kind of experiment: Potency ratio was obtained using a 3 point x 3 point parallel-line bioassay for quantal data and reflects the potency relative to LSD; 0.21-0.08. It is filed as functional.
Series [24] deals with Rattus norvegicus. Nature of the series: Number of rats scored LSD correct/number tested was reported at a dose of 93.0 nM/Kg using 2-lever drug discrimination assay; 6/8. The format is functional.
The test system of series [25] is Rattus norvegicus. Nature of the series: Number of rats scored LSD correct/number tested was reported at a dose of 11.5 nM/Kg using 2-lever drug discrimination assay; 0/8. The format is functional.
The species entered for series [26] is Rattus norvegicus. Nature of the series: Potency ratio was obtained using a 3 point x 3 point parallel-line bioassay for quantal data and reflects the potency relative to LSD. The format is functional.
For series [27], the system named is Rattus norvegicus. Nature of the series: Number of rats scored LSD correct/number tested was reported at a dose of 23 nM/Kg using 2-lever drug discrimination assay; 2/8. The format is functional.
The species entered for series [28] is Rattus norvegicus. Nature of the series: Effective dose at which 50% of the rats tested selected the LSD-appropriate lever was reported; 0.029-0.072. The format is functional.
Series [29] relates to Rattus norvegicus. As to the kind of experiment: Number of rats scored LSD correct/number tested was reported at a dose of 185.5 nM/Kg using 2-lever drug discrimination assay; 8/8. It is filed as functional.
Series [30] has as its system Rattus norvegicus. Nature of the series: Number of rats scored LSD correct/number tested was reported at a dose of 46.5 nM/Kg using 2-lever drug discrimination assay; 4/8. It is filed as functional.
In series [31] the test system is Rattus norvegicus. Nature of the series: Number of rats scored LSD correct/number tested was reported at a dose of 5.75 nM/Kg using 2-lever drug discrimination assay; 2/8. The format is functional.
The species entered for series [32] is Rattus norvegicus. Nature of the series: Effective dose at which 50% of the rats tested selected the LSD-appropriate lever was reported; 0.010-0.041. The format is functional.
Series [33] has as its system Rattus norvegicus. Nature of the series: Number of rats scored LSD correct/number tested was reported at a dose of 11.5 nM/Kg using 2-lever drug discrimination assay; 3/8. The format is functional.
Series [34] concerns Rattus norvegicus. Nature of the series: Number of rats scored LSD correct/number tested was reported at a dose of 93 nM/Kg using 2-lever drug discrimination assay; 8/8. It is filed as functional.
The test system of series [35] is Rattus norvegicus. As to the kind of experiment: Number of rats scored LSD correct/number tested was reported at a dose of 46.5 nM/Kg using 2-lever drug discrimination assay; 5/8. The format is functional.
In series [36] the test system is Rattus norvegicus. As to the kind of experiment: Number of rats scored LSD correct/number tested was reported at a dose of 23.0 nM/Kg using 2-lever drug discrimination assay; 3/8. The format is functional.
Series [37] is filed under the species Rattus norvegicus. Nature of the series: Potency ratio was obtained using a 3 point x 3 point parallel-line bioassay for quantal data and reflects the potency relative to LSD; 2.63-1.00. The format is functional.
The species entered for series [38] is Rattus norvegicus. As to the kind of experiment: Effective dose at which 50% of the rats tested selected the LSD-appropriate lever was reported; 0.019-0.071. The format is functional.
The species named for series [39] is Rattus norvegicus. Nature of the series: Potency ratio was obtained using a 3 point x 3 point parallel-line bioassay for quantal data and reflects the potency relative to LSD; 1.62-0.62. The format is functional.
Series [40] deals with Rattus norvegicus. Nature of the series: Number of rats scored LSD correct/number tested was reported at a dose of 11.5 nM/Kg using 2-lever drug discrimination assay; 2/8. It is filed as functional.
The subject of series [41] is Rattus norvegicus. As to the kind of experiment: Number of rats scored LSD correct/number tested was reported at a dose of 185 nM/kg using 2-lever drug discrimination assay; 8/8. The format is functional.
The subject of series [42] is Rattus norvegicus. As to the kind of experiment: Number of rats scored LSD correct/number tested was reported at a dose of 93 nM/Kg using 2-lever drug discrimination assay; 6/8. It is filed as functional.

In the case of `CCN(CC)C(=O)[C@@H]1C=C2c3cccc4[nH]cc(c34)C[C@H]2NC1`, the Activity in the series with Rattus norvegicus [1] is listed as 50%.
In turn, `CCN(CC)C(=O)[C@@H]1C=C2c3cccc4[nH]cc(c34)C[C@H]2N(C(C)C)C1` had an ED50 in the series listed under Rattus norvegicus [2] of 0.1 µg/kg. Besides, the Activity in the series on Rattus norvegicus [3] was found to be 5; in the series with Rattus norvegicus [4], 3; with Rattus norvegicus [5], 8; in the series with Rattus norvegicus [7], 1; in the series with Rattus norvegicus [8], 2. In addition, in the series listed under Rattus norvegicus [6], the Potency ratio turned out to be 0.41.
Take `C=CCN1C[C@H](C(=O)N(CC)CC)C=C2c3cccc4[nH]cc(c34)C[C@H]21`: the Activity was found to be 4 in the series on Rattus norvegicus [9]; 4 in the series with Rattus norvegicus [10]; 3 with Rattus norvegicus [13]; 8 in the series on Rattus norvegicus [14]; 6 with Rattus norvegicus [15]. Further, the Potency ratio in the series filed under Rattus norvegicus [11] amounted to 2.01. The same compound displayed an ED50 in the series filed under Rattus norvegicus [12] of 0.013 µmol/kg.
With `CCN(CC)C(=O)[C@@H]1C=C2c3cccc4[nH]cc(c34)C[C@H]2N(CCc2ccccc2)C1`, in the series with Rattus norvegicus [16], the Activity came to 25%.
Regarding `CCCCN1C[C@H](C(=O)N(CC)CC)C=C2c3cccc4[nH]cc(c34)C[C@H]21`, the Activity in the series with Rattus norvegicus [17] came out at 0; with Rattus norvegicus [18], 1; in the series with Rattus norvegicus [19], 3; with Rattus norvegicus [20] it was 7; in the series on Rattus norvegicus [22], 1. The compound further came in with an ED50 in the series listed under Rattus norvegicus [21] of 0.357 µg/kg. Besides, the Potency ratio in the series filed under Rattus norvegicus [23] is recorded as 0.13.
`CCN(CC)C(=O)[C@@H]1C=C2c3cccc4[nH]cc(c34)C[C@H]2N(C)C1` [LYSERGIDE]: the Activity in the series on Rattus norvegicus [24] is 6; with Rattus norvegicus [25] it was 0; with Rattus norvegicus [27], 2; in the series with Rattus norvegicus [29], 8; with Rattus norvegicus [30], 4. Moreover, the Potency ratio in the series listed under Rattus norvegicus [26] turned out to be 1. In addition, the ED50 in the series filed under Rattus norvegicus [28] stood at 0.046 µg/kg.
With `CCN(CC)C(=O)[C@@H]1C=C2c3cccc4[nH]cc(c34)C[C@H]2N(CC)C1`, the Activity with Rattus norvegicus [31] is 2; in the series with Rattus norvegicus [33] it was 3; with Rattus norvegicus [34], 8; in the series with Rattus norvegicus [35] it was 5; in the series with Rattus norvegicus [36], 3. Also, the median effective dose (ED50) in the series filed under Rattus norvegicus [32] was 0.02 µg/kg. Further, the Potency ratio in the series filed under Rattus norvegicus [37] amounted to 1.63.
Compound `CCCN1C[C@H](C(=O)N(CC)CC)C=C2c3cccc4[nH]cc(c34)C[C@H]21` showed an ED50 in the series filed under Rattus norvegicus [38] of 0.037 µg/kg. The Activity worked out at 2 in the series with Rattus norvegicus [27]; 2 in the series on Rattus norvegicus [40]; 8 in the series on Rattus norvegicus [41]; 6 in the series on Rattus norvegicus [42]; 4 in the series on Rattus norvegicus [30]. The Potency ratio in the series listed under Rattus norvegicus [39] is listed as 1.
